Columns and labels:
[1] = test system: A431 skin cancer cell line; experiment: Cancer cell growth inhibition, A431 (SRB); conditions: Homo sapiens, A-431, 72 h, read-out: ID50 (nM) A431
[2] = test system: SK-Br3 breast cancer cell line; experiment: Cancer cell growth inhibition, SK-Br3 (SRB); conditions: Homo sapiens, SK-BR-3, 72 h, read-out: ID50 (nM) SK-Br3

**Q.** Which results are given for C=CC(=O)N1CCC(Oc2cc3c(Nc4cccc(Cl)c4OC)ncnc3cc2OC)CC1 [Example 59, 1-(4-(4-(3-chloro-2-methoxyphenylamino)-7-methoxyquinazolin-6-yloxy)piperidin-1-yl)pro-2-pen-1-one]?
**A.** IC50 [1]: 3 nM; IC50 [2]: 9 nM

**Q.** For COc1cc2ncnc(Nc3cccc(Cl)c3F)c2cc1OC1CN(C(=O)/C=C/CN(C)C)C1 [Example 102, (E)-1-(3-(4-(3-chloro-2-fluorophenylamino)-7-methoxyquinazolin-6-yloxy)azetidin-1-yl)-4-(dimethylamino)but-2-en-1-one], which IC50 [1] is on record?
**A.** 9 nM

**Q.** What about the IC50 [2] of the same compound?
**A.** 8 nM

**Q.** For C=CC(=O)N1CC[C@H](Oc2cc3c(Nc4ccc(F)c(Cl)c4F)ncnc3cc2OC)C[C@H]1C(=O)NCC [Example 122, (2S,4S)-1-acryloyl-4-(4-(3-chloro-2,4-difluorophenylamino)-7-methoxyquinazolin-6-yloxy)-N-ethylpiperidin-2-carboxamide], which IC50 [1] is on record?
**A.** 8 nM

**Q.** What about the IC50 [2] of the same compound?
**A.** 2.3 nM

**Q.** With COc1cc2ncnc(Nc3ccc(F)c(Cl)c3F)c2cc1OC1CCN(C(=O)/C=C\C(=O)O)CC1 [Example 85, (Z)-4-(4-(4-(3-chloro-2,4-difluorophenylamino)-7-methoxyquinazolin-6-yloxy)piperidin-1-yl)-4-oxobut-2-enoic acid] as the compound, how does the IC50 [1] read?
**A.** 41 nM

**Q.** What about the IC50 [2] of the same compound?
**A.** 395 nM

**Q.** Which IC50 [1] does the source give for C=CC(=O)N1CC[C@@H](Oc2cc3c(Nc4ccc(F)c(Cl)c4F)ncnc3cc2OC)C[C@@H]1C(=O)NCCS(C)(=O)=O [Example 138, (2R,4R)-1-acryloyl-4-(4-(3-chloro-2,4-difluorophenylamino)-7-methoxyquinazolin-6-yloxy)-N-(2-(methylsulfonyl)ethyl)piperidin-2-carboxamide] here?
**A.** 2.4 nM

**Q.** What about the IC50 [2] of the same compound?
**A.** 1.3 nM

**Q.** For C=CC(=O)N1CC[C@H](Oc2cc3c(Nc4ccc(F)c(Cl)c4F)ncnc3cc2OC)C[C@H]1C(=O)NO [Example 125, (2S,4S)-1-acryloyl-4-(4-(3-chloro-2,4-difluorophenylamino)-7-methoxyquinazolin-6-yloxy)-N-hydroxypiperidin-2-carboxamide], which IC50 [1] is on record?
**A.** 10 nM

**Q.** And the IC50 [2]?
**A.** 1 nM

**Q.** What does the source list for C=CC(=O)N1CCC(Oc2cc3c(Nc4ccc(Cl)c(C#N)c4)ncnc3cc2OC)CC1 [Example 67, 5-(6-(1-acryloylpiperidin-4-yloxy)-7-methoxyquinazolin-4-ylamino)-2-chlorobenzonitrile]?
**A.** IC50 [1]: 35 nM; IC50 [2]: 10 nM

**Q.** C=CC(=O)N1CC[C@H](Oc2cc3c(Nc4cccc(Cl)c4F)ncnc3cc2OC)C1 [Example 6, 1-((3S)-3-(4-(3-chloro-2-fluorophenylamino)-7-methoxyquinazolin-6-yloxy)pyrrolidin-1-yl)pro-2-pen-1-one] was tested. Which IC50 [1] did it give?
**A.** 531 nM

**Q.** What about the IC50 [2] of the same compound?
**A.** 1670 nM

**Q.** CN(C)C/C=C/C(=O)N1CC[C@H](Oc2ccc3ncnc(Nc4ccc(F)c(Cl)c4F)c3c2)C1 [Example 97, (E)-1-((3S)-3-(4-(3-chloro-2,4-difluorophenylamino)quinazolin-6-yloxy)pyrrolidin-1-yl)-4-(dimethylamino)but-2-en-1-one] was tested. Which IC50 [1] did it give?
**A.** 25 nM

**Q.** And the IC50 [2]?
**A.** 94 nM

**Q.** With C=CC(=O)N1CCC(Oc2cc3c(Nc4ccc(Cl)c(O)c4)ncnc3cc2OC)CC1 [Example 51, 1-(4-(4-(4-chloro-3-hydroxyphenylamino)-7-methoxyquinazolin-6-yloxy)piperidin-1-yl)pro-2-pen-1-one] as the compound, how does the IC50 [1] read?
**A.** 105 nM

**Q.** And the IC50 [2]?
**A.** 19 nM

**Q.** Which results are given for COc1cc2ncnc(Nc3ccc(F)c(Cl)c3F)c2cc1OCCNC(=O)/C=C/CN(C)C [Example 103, (E)-N-(2-(4-(3-chloro-2,4-difluorophenylamino)-7-methoxyquinazolin-6-yloxy)ethyl)-4-(dimethylamino)but-2-enamide]?
**A.** IC50 [1]: 18 nM; IC50 [2]: 7 nM

**Q.** With COC(=O)/C=C\C(=O)N1CCC(Oc2cc3c(Nc4ccc(Cl)c(Cl)c4F)ncnc3cc2OC)CC1 [Example 84, (Z)-methyl 4-(4-(4-(3,4-dichloro-2-fluorophenylamino)-7-methoxyquinazolin-6-yloxy)piperidin-1-yl)-4-oxobut-2-enoate] as the compound, how does the IC50 [1] read?
**A.** 8 nM

**Q.** What about the IC50 [2] of the same compound?
**A.** 21 nM

**Q.** For C=C(CO)C(=O)N1CCC(Oc2cc3c(Nc4ccc(Cl)c(Cl)c4F)ncnc3cc2OC)CC1 [Example 114, 1-(4-(4-(3,4-dichloro-2-fluorophenylamino)-7-methoxyquinazolin-6-yloxy)piperidin-1-yl)-2-(hydroxymethyl)prop-2-en-1-one], which IC50 [1] is on record?
**A.** 44 nM

**Q.** What about the IC50 [2] of the same compound?
**A.** 274 nM

**Q.** Which IC50 [1] does the source give for COc1cc2ncnc(Nc3ccc(Cl)c(Cl)c3F)c2cc1OC1CCN(C(=O)/C=C\Cl)CC1 [Example 89, (Z)-3-chloro-1-(4-(4-(3,4-dichloro-2-fluorophenylamino)-7-methoxyquinazolin-6-yloxy)piperidin-1-yl)prop-2-en-1-one] here?
**A.** 14 nM

**Q.** What about the IC50 [2] of the same compound?
**A.** 85 nM

**Q.** For CNC(=O)/C=C/C(=O)N1CCC(Oc2cc3c(Nc4ccc(F)c(Cl)c4F)ncnc3cc2OC)CC1 [Example 82, (E)-4-(4-(4-(3-chloro-2,4-difluorophenylamino)-7-methoxyquinazolin-6-yloxy)piperidin-1-yl)-N-methyl-4-oxobut-2-enamide], which IC50 [1] is on record?
**A.** 48 nM

**Q.** What about the IC50 [2] of the same compound?
**A.** 134 nM

**Q.** What does the source list for C=CC(=O)N1CC[C@@H](Oc2cc3c(Nc4ccc(F)c(Cl)c4F)ncnc3cc2OC)C[C@@H]1C(=O)O [Example 134, (2R,4R)-1-acryloyl-4-(4-(3-chloro-2,4-difluorophenylamino)-7-methoxyquinazolin-6-yloxy)piperidin-2-carboxylic acid]?
**A.** IC50 [1]: 979 nM; IC50 [2]: 4 nM

**Q.** Which results are given for C=CC(=O)N1CC[C@@H](Oc2cc3c(Nc4ccc(Br)cc4F)ncnc3cc2OC)C[C@@H]1C(N)=O [Example 140, (2R,4R)-1-acryloyl-4-(4-(4-bromo-2-fluorophenylamino)-7-methoxyquinazolin-6-yloxy)piperidin-2-carboxamide]?
**A.** IC50 [1]: 1.1 nM; IC50 [2]: 0.3 nM

**Q.** Which results are given for COc1cc2ncnc(Nc3ccc(Cl)c(Cl)c3F)c2cc1OC1CCN(C(=O)/C=C/CN(C)C)CC1 [Example 99, (E)-1-(4-(4-(3,4-dichloro-2-fluorophenylamino)-7-methoxyquinazolin-6-yloxy)piperidin-1-yl)-4-(dimethylamino)but-2-en-1-one]?
**A.** IC50 [1]: 165 nM; IC50 [2]: 39 nM

**Q.** For C=CC(=O)N1CC[C@H](Oc2cc3c(Nc4ccc(F)c(Cl)c4F)ncnc3cc2OC)C[C@H]1C(=O)NCCN1CCOCC1 [Example 132, (2S,4S)-1-acryloyl-4-(4-(3-chloro-2,4-difluorophenylamino)-7-methoxyquinazolin-6-yloxy)-N-(2-morpholinoethyl)piperidin-2-carboxamide], which IC50 [1] is on record?
**A.** 8.3 nM

**Q.** What about the IC50 [2] of the same compound?
**A.** 0.5 nM

**Q.** Which IC50 [1] does the source give for CC#CC(=O)N1CCC(Oc2cc3c(Nc4ccc(F)c(Cl)c4F)ncnc3cc2OC)CC1 [Example 80, 1-(4-(4-(3-chloro-2,4-difluorophenylamino)-7-methoxyquinazolin-6-yloxy)piperidin-1-yl)but-2-yn-1-one] here?
**A.** 190 nM

**Q.** And the IC50 [2]?
**A.** 268 nM

**Q.** What does the source list for C=CC(=O)N1CC[C@H](Oc2cc3c(Nc4ccc(F)c(Cl)c4F)ncnc3cc2OC)C[C@H]1C(=O)NC [Example 121, (2S,4S)-1-acryloyl-4-(4-(3-chloro-2,4-difluorophenylamino)-7-methoxyquinazolin-6-yloxy)-N-methylpiperidin-2-carboxamide]?
**A.** IC50 [1]: 2.2 nM; IC50 [2]: 2.5 nM

**Q.** How did the IC50 [1] turn out when CNC(=O)/C=C/C(=O)N1CC(Oc2cc3c(Nc4ccc(F)c(Cl)c4F)ncnc3cc2OC)C1 [Example 28, (E)-4-(3-(4-(3-chloro-2,4-difluorophenylamino)-7-methoxyquinazolin-6-yloxy)azetidin-1-yl)-N-methyl-4-oxobut-2-ene amide] was run?
**A.** 41 nM

**Q.** And the IC50 [2]?
**A.** 262 nM

**Q.** For C=CC(=O)N1CCC(Oc2cc3c(Nc4cc(OC)c(Cl)cc4OC)ncnc3cc2OC)CC1 [Example 38, 1-(4-(4-(4-chloro-2,5-dimethoxyphenylamino)-7-methoxyquinazolin-6-yloxy)piperidin-1-yl)pro-2-pen-1-one], which IC50 [1] is on record?
**A.** > 10000 nM

**Q.** And the IC50 [2]?
**A.** > 10000 nM

**Q.** What does the source list for C=CC(=O)N1CC[C@H](Oc2cc3c(Nc4ccc(F)c(Cl)c4F)ncnc3cc2OC)C[C@H]1C(=O)NCCC [Example 123, (2S,4S)-1-acryloyl-4-(4-(3-chloro-2,4-difluorophenylamino)-7-methoxyquinazolin-6-yloxy)-N-propylpiperidin-2-carboxamide]?
**A.** IC50 [1]: 12 nM; IC50 [2]: 5 nM

**Q.** COc1cc2ncnc(Nc3ccc(F)c(Cl)c3F)c2cc1O[C@H]1CCN(C(=O)C#CCN(C)C)C1 [Example 5, 1-((3S)-3-(4-(3-chloro-2,4-difluorophenylamino)-7-methoxyquinazolin-6-yloxy)pyrrolidin-1-yl)-4-(dimethylamino)but-2-yn-1-one] was tested. Which IC50 [1] did it give?
**A.** 33 nM

**Q.** And the IC50 [2]?
**A.** 128 nM

**Q.** With C=C(CN1CCCCC1)C(=O)N1CC(Oc2cc3c(Nc4ccc(F)c(Cl)c4F)ncnc3cc2OC)C1 [Example 108, 1-(3-(4-(3-chloro-2,4-difluorophenylamino)-7-methoxyquinazolin-6-yloxy)azetidin-1-yl)-2-(piperidin-1-ylmethyl)prop-2-en-1-one] as the compound, how does the IC50 [1] read?
**A.** 9.1 nM

**Q.** What about the IC50 [2] of the same compound?
**A.** 6 nM

**Q.** Which IC50 [1] does the source give for COc1cc2ncnc(Nc3ccc(F)c(Cl)c3F)c2cc1O[C@H]1CCN(C(=O)C#CCCN2CCN(C)CC2)C1 [Example 4, 1-((3S)-3-(4-(3-chloro-2,4-difluorophenylamino)-7-methoxyquinazolin-6-yloxy)pyrrolidin-1-yl)-5-(4-methylpiperazin-1-yl)pent-2-yn-1-one] here?
**A.** 53 nM

**Q.** What about the IC50 [2] of the same compound?
**A.** 604 nM

**Q.** What does the source list for C=CC(=O)N1CCC(Oc2cc3c(Nc4ccc(F)c(Cl)c4F)ncnc3cc2OCCCN2CCOCC2)CC1 [Example 118, 1-(4-(4-(3-chloro-2,4-difluorophenylamino)-7-(3-morpholinopropoxy)quinazolin-6-yloxy)piperidin-1-yl)prop-2-en-1-one]?
**A.** IC50 [1]: 4 nM; IC50 [2]: 2 nM

**Q.** With C=CC(=O)N1CC[C@H](Oc2cc3c(Nc4ccc(F)c(Cl)c4F)ncnc3cc2OC)C[C@H]1C(=O)OC [Example 119, (2S,4S)-methyl 1-acryloyl-4-(4-(3-chloro-2,4-difluorophenylamino)-7-methoxyquinazolin-6-yloxy)piperidin-2-carboxylate] as the compound, how does the IC50 [1] read?
**A.** 5 nM

**Q.** What about the IC50 [2] of the same compound?
**A.** 6 nM
